Test results published in US20230128194A1, “METHODS AND COMPOSITIONS TO ALTER HEPATIC GABA RELEASE TO TREAT OBESITY-RELATED CONDITIONS” (ARIZONA BOARD OF REGENTS ON BEHALF OF THE UNIVERSITY OF …, priority 2017, published 2023).

Biological target: T1, BGT1 (Mus musculus, UniProt P31651)
T1 construct: from tissue; host or cells: mouse liver slices
T1 sequence (P31651 1-614): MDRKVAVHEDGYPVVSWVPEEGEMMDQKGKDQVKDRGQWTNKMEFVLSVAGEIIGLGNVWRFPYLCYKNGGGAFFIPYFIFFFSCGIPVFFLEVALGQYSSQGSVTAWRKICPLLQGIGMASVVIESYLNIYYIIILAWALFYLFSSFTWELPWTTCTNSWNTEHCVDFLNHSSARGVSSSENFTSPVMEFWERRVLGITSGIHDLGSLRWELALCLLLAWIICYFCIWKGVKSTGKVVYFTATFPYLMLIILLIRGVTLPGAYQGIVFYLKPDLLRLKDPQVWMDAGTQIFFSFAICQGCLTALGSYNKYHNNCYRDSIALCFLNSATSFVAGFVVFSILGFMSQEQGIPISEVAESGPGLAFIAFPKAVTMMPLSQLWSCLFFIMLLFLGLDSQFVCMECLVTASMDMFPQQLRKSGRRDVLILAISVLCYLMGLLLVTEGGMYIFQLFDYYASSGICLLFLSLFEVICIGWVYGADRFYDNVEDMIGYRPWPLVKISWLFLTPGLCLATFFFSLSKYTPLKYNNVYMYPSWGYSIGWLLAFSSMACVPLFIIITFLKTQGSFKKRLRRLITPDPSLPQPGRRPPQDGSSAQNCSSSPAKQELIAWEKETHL
Experiment: liver slice media GABA with BGT1 inhibitor
Type: cell-based
Details: liver slices, 1 mM
Source text: Two liver slices were taken from each mouse.

C[N+](C)(C)CC(=O)O [betaine]
media GABA concentrations: increases
